Laboratory results from patent US10392428B2, “GLP-1 derivatives and uses thereof” (Novo Nordisk A/S, priority 2014, dated 2019).

How the values were obtained:
human GLP-1 receptor [1] = molecular target: T1, human GLP-1 receptor (Homo sapiens, UniProt P43220); assay: In vitro potency: CRE luciferase reporter gene assay in BHK cells expressing the human GLP-1 receptor; assay type: cell-based; details: whole cell reporter gene assay, 3 h incubation, average of at least two replicates
T1 construct: expressed in transfected cells; host or cells: membrane preparation from BHK cells, clone FCW467-12A (parent line BHKTS13)
T1 sequence (P43220 24-463): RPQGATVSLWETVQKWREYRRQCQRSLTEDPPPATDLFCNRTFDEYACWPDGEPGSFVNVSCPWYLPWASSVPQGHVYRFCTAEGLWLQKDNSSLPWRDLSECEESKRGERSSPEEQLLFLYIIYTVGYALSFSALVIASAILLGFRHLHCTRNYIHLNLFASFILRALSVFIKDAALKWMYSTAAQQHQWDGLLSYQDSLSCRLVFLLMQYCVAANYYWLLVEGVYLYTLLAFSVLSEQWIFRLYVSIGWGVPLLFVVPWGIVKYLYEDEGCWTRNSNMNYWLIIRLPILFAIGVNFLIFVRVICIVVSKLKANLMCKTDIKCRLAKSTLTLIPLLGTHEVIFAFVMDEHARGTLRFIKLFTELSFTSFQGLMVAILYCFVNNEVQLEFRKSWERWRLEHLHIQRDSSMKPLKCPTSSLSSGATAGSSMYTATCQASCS
Procedure: The purpose of this example is to test the activity, or potency, of the GLP-1 derivatives in vitro. The in vitro potency is the measure of human GLP-1 receptor activation in a whole cell assay.
In vitro potency was determined by measuring the response of the human GLP-1 receptor in a reporter gene assay. The assay was performed in a stably transfected BHK cell line that expresses the human GLP-1 receptor and contains the DNA for the cAMP response element (CRE) coupled to a promoter and the gene for firefly luciferase (CRE luciferase). When the human GLP-1 receptor is activated it results in the production of cAMP, which in turn results in the luciferase protein being expressed. When assay incubation is completed the luciferase substrate (luciferin) is added and the enzyme converts luciferin to oxyluciferin to produce bioluminescence. The luminescence is measured as the readout for the assay.
The cells were cultured at 5% CO2 in cell culture medium. They were aliquoted and stored in liquid nitrogen. Before each assay an aliquot was taken up and washed twice in PBS before being suspended at the desired concentration in the assay specific buffer.
Assay medium consisted of DMEM w/o phenol red, 10 mM Hepes and 1χ Glutamax. The assay buffer consisted of 2% ovalbumin and 0.2% Pluronic F-68 in assay medium.
1) Cell stocks were thawed in a 37° C. water bath.
2) Cells were washed three times in PBS.
3) Cells were counted and adjusted to 5×10^3 cells/50 μl (1×10^5 cells/ml) in assay medium. A 50 μl aliquot of cells was transferred to each well in the assay plate.
4) Stocks of the test compounds and reference compounds were diluted to a concentration of 0.2 μM in assay buffer. […] 8) A 100 μl aliquot of steadylite plus reagent was added to each well of the assay plate. […] 10) Each assay plate was read in a BioTek Synergy 2 Multi-Mode Reader.
The data from the BioTek Synergy 2 Multi-Mode Reader were transferred to GraphPad Prism software. […]
A minimum of two replicates was measured for each sample. The reported EC50 values are averages of all of the measured values for each compound.

human GLP-1 receptor [2] = molecular target: T1, human GLP-1 receptor; assay: GLP-1 receptor binding: competitive binding assay (125I-GLP-1, SPA) on isolated membranes at low and high HSA; details: low HSA (max. 0.001% final assay concentration); read-out: Low HSA IC50
Procedure: The purpose of this example is to test the receptor binding of the GLP-1 derivatives in vitro. The receptor binding is a measure of affinity of a derivative for the human GLP-1 receptor.
Each derivative is added in a series of concentrations to isolated membranes containing the human GLP-1 receptor and displacement of the labelled ligand is monitored. The receptor binding is reported as the concentration at which half of the labelled ligand is displaced from the receptor, the IC50 value.
Buffer 1 consisted of 20 mM Na-HEPES plus 10 mM EDTA and pH was adjusted to 7.4. Buffer 2 consisted of 20 mM Na-HEPES plus 0.1 mM EDTA and pH was adjusted to 7.4. Assay buffer consisted of 50 mM HEPES supplemented with 5 mM EGTA, 5 mM MgCl2, 0.005% Tween 20 and pH was adjusted to 7.4. An 8% albumin stock consisted of HSA dissolved at 8% (w/v) in assay buffer. An 0.02% albumin stock consisted of HSA dissolved at 0.02% (w/v) in assay buffer.
The cells express the human GLP-1 receptor.
The cells were grown at 5% CO2 in DMEM, 10% fetal calf serum, 1% Pen/Strep (Penicillin/Streptomycin) and 1.0 mg/ml of the selection marker G418.
To make a membrane preparation the cells were grown to approximately 80% confluence. The cells were washed twice in phosphate-buffered saline and harvested. The cells were pelleted using a brief centrifugation and the cell pellet was kept on ice. […] The homogenate was centrifuged for 15 minutes. The pellet was re-suspended (homogenised) in 10 ml buffer 2 and centrifuged. This step was repeated once more. The resulting pellet was re-suspended in buffer 2 and the protein concentration was determined. The membranes were aliquoted and stored at minus 80° C.
For the receptor binding assay in the presence of low HSA (0.005%) 50 μl of the assay buffer was added to each well of an assay plate.
For the receptor binding assay in the presence of high HSA (2%) 50 μl of the 8% albumin stock was added to each well of an assay plate.
Cell membrane aliquots were thawed and diluted to their working concentration. Fifty μl were added to each well in the assay plate.
WGA SPA beads were suspended in assay buffer at 20 mg/ml. The suspension was diluted to 10 mg/ml in assay buffer just prior to addition to the assay plate. Fifty μl were added to each well in the assay plate.
A 25 μl aliquot was reserved for measuring total counts/well.
The assay plate was incubated for 2 h at 30° C.
The assay plate was centrifuged for 10 min.
The assay plate was read in a Packard TopCount NXT instrument.
The data from the TopCount instrument were transferred to Graph Pad Prism software. Individual replicates were analysed using non-linear regression. IC50 values were calculated by the software and reported in nM. The reported values are averages of all of the measured values for each compound.

[3] = test system: obese, diabetic mouse model (db/db mice); assay: Pharmacodynamic study in db/db mice: acute effect on blood glucose and body weight; assay type: in vivo
Procedure: The purpose of the study is to verify the acute effect of the GLP-1 derivatives on blood glucose (BG) and body weight (BW) in a diabetic setting.
The GLP-1 derivatives of Examples 2-4 and 6-10 were tested in a single-dose study in an obese, diabetic mouse model (db/db mice) as described in the following.
Six db/db mice per compound to be tested (from Taconic, Denmark), fed from birth with the diet NIH31 (NIH 31M Rodent Diet, commercially available from Taconic Farms, Inc., US, see www.taconic.com), were enrolled for the study at the age of approximately 10 weeks. At arrival to the animal facility the mice were given free access to standard chow (e.g. Altromin 1324, Brogaarden, Denmark) and tap water and kept at 24° C. After 1-2 weeks of acclimatisation, the basal blood glucose was assessed twice on two consecutive days (i.e. at 9 am). The mice were allocated to treatment groups based on matching blood glucose levels and body weights. […]
On the day of dosing, blood glucose was assessed at time −½ h (8.30 am), the mice were weighed after this. […] On the day of dosing, blood glucose was assessed at times 1, 2, 4 and 8 h (10 am, 11 am, 1 pm and 5 pm) after dosing.
On the following days, the blood glucose was assessed at time 24 h, 48 h, 72 h, and 96 h (all Example compounds), and for the GLP-1 derivatives of Examples […] blood glucose was further assessed daily up to 240 h after dosing. […]
Samples for the measurement of blood glucose were obtained from the tail tip capillary of conscious mice. […] The glucose concentration was measured using the glucose oxidase method (glucose analyser Biosen 5040, EKF Diagnostic, GmbH, Germany). […]
The data are presented as percent change in blood glucose or body weight measured at the 48 h time points. For example, the percent change in blood glucose level at 48 h for each individual is calculated as follows: [[(blood glucose level at 48 h)−(basal blood glucose level)]/(basal blood glucose level)]×100%], where basal blood glucose level refers to the level before the administration of any treatment−and vice versa for the body weight change. […]

[4] = single s.c. dose 10 nmol/kg, 48 h vs basal

CC[C@H](C)[C@H](NC(=O)[C@H](Cc1ccccc1)NC(=O)[C@H](CCC(=O)O)NC(=O)[C@H](CCCNC(=N)N)NC(=O)[C@H](C)NC(=O)[C@H](C)NC(=O)[C@H](CCC(N)=O)NC(=O)[C@H](CCC(=O)O)NC(=O)[C@H](CCC(=O)O)NC(=O)[C@H](CC(C)C)NC(=O)[C@H](Cc1ccc(O)cc1)NC(=O)[C@H](CO)NC(=O)[C@H](CO)NC(=O)[C@@H](NC(=O)[C@H](CC(=O)O)NC(=O)[C@H](CO)NC(=O)[C@@H](NC(=O)[C@H](Cc1ccccc1)NC(=O)[C@@H](NC(=O)CNC(=O)[C@H](CCC(=O)O)NC(=O)C(C)(C)NC(=O)[C@@H](N)Cc1c[nH]cn1)[C@@H](C)O)[C@@H](C)O)C(C)C)C(=O)N[C@@H](C)C(=O)N[C@@H](Cc1c[nH]c2ccccc12)C(=O)N[C@@H](CC(C)C)C(=O)N[C@H](C(=O)N[C@@H](CCCNC(=N)N)C(=O)NCC(=O)N[C@@H](CCCNC(=N)N)C(=O)N[C@@H](CCCCNC(=O)[C@@H](N)CCCCNC(=O)[C@@H](N)CCCCNC(=O)[C@@H](N)CCCCNC(=O)[C@@H](N)CCCCNC(=O)[C@H](CCCCNC(=O)CC[C@H](NC(=O)[C@H]1CC[C@H](CNC(=O)CCCCCCCCCCCCCCCCCCC(=O)O)CC1)C(=O)O)NC(=O)CC[C@H](NC(=O)[C@H]1CC[C@H](CNC(=O)CCCCCCCCCCCCCCCCCCC(=O)O)CC1)C(=O)O)C(=O)O)C(C)C [Example 10, N{Epsilon-37}-[(2S)-2-amino-6-[[(2S)-2-amino-6-[[(2S)-2-amino-6-[[(2S)-2-amino-6-[[(2S)-2,6-bis[[(4S)-4-carboxy-4-[[4-[(19-carboxynonadecanoylamino)methyl]cyclohexanecarbonyl]amino]butanoyl]amino]hexanoyl]amino]hexanoyl]amino]hexanoyl]amino]hexanoyl]amino]hexanoyl]-[Aib8,Glu22,Arg26,Arg34,Lys37]-GLP-1-(7-37)-peptide]
EC50 (human GLP-1 receptor [1]): 0.15 nM
IC50 (human GLP-1 receptor [2]): 19 nM
effect on BG ([3]; after 48 h, single s.c. injection of either 3, 10 or 30 nmol/kg): not as pronounced
% change in blood glucose [3, 4]: −3%
% change in body weight [3, 4]: −3%
